The results in this text go back to ChEMBL document CHEMBL1201862, “PubChem BioAssay data set” (2004).

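Tested at 5 concentrations; 48 h exposure; 96-well plates; endpoints linearly interpolated, else capped at highest concentration. Abbreviation: GI50, concentration required for 50% inhibition of growth.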 The source made the active and inactive calls. Cut-off read from the data, not from the text of the source: active = GI50 up to about 1.1 µM and inactive = higher.

Some test systems named below: OVCAR-5; NCI-H226; HCT-15; SK-OV-3; M14; NCI-H522; SK-MEL-5; OVCAR-8; MOLT-4; CAKI-1; TK-10; U-251; A498; ACHN; NCI-H23.
Assay in all cases: NCI-60 cell line screen, 48 h

Turning to `C=CCCCC(C#N)(c1ccccc1)N1CCCC1` (stereo not drawn), the GI50 is > 100 µM (inactive) with OVCAR-5; > 100 µM (inactive) in the test on NCI-H226; more than 100 µM in the test on HCT-15; > 100 µM (inactive) in the test on SK-OV-3; > 100 µM (inactive) in the test with M14; > 100 µM (inactive) in the test on NCI-H522. Further, the GI50 in the test on SK-MEL-5, in the test with OVCAR-8, in the test with MOLT-4, in the test with CAKI-1, in the test on TK-10 and in the test on U-251 was > 100 µM (inactive) throughout. Further, the GI50 in the test with A498, in the test on ACHN and in the test with NCI-H23 was > 100 µM (inactive) throughout.

Take `Cc1cccc(C2=C/C(=C(\SS/C(C(=O)c3ccc(OCC(=O)O)c(Cl)c3Cl)=C3\C=C(c4cccc(C)c4)SS3)C(=O)c3ccc(OCC(=O)O)c(Cl)c3Cl)SS2)c1`: the GI50 in the test on OVCAR-5 was 30.4 µM (inactive); with NCI-H226, 12.1 µM (inactive); in the test on HCT-15 it was 12 µM; with SK-OV-3 it was 36.6 µM (inactive); in the test with M14, 22.1 µM (inactive); in the test with NCI-H522, 2.12 µM (inactive). The GI50 in the test on SK-MEL-5 was 15.9 µM (inactive); with OVCAR-8, 11.7 µM (inactive); with MOLT-4, 13.6 µM (inactive); in the test on CAKI-1, 23.1 µM (inactive); in the test with TK-10, 27.9 µM (inactive); with U-251, 4.51 µM (inactive). Besides, the results for the GI50 with A498, in the test on ACHN and with NCI-H23 were 24.4 µM (inactive), 12.4 µM (inactive) and 12.1 µM (inactive), respectively.

Regarding `O=C(Nc1cccc(O)c1)C(=O)C(C(=O)c1ccc(Cl)c(Cl)c1)C1OC(=O)c2ccccc21` (stereo not drawn), the GI50 with OVCAR-5 is 22 µM (inactive); with NCI-H226, 3.46 µM (inactive); in the test on HCT-15 it was 15.5 µM; with SK-OV-3 it was 12.8 µM (inactive); in the test with M14, 20.2 µM (inactive); with NCI-H522, 9.82 µM (inactive). For the same compound, the GI50 was 19.7 µM (inactive) in the test on SK-MEL-5; 10.7 µM (inactive) in the test on OVCAR-8; 5.01 µM (inactive) in the test on MOLT-4; 27.2 µM (inactive) in the test with CAKI-1; 23.8 µM (inactive) in the test on TK-10; 8.02 µM (inactive) with U-251. Besides, the GI50 was 19.5 µM (inactive) in the test with A498, 14.6 µM (inactive) with ACHN and 16.6 µM (inactive) in the test on NCI-H23.

For `N#CC(C#N)=C1NC(=O)CC(=O)N1`, the GI50 in the test with OVCAR-5 was > 100 µM (inactive); with NCI-H226, > 100 µM (inactive); in the test on HCT-15, more than 100 µM; in the test with SK-OV-3, > 100 µM (inactive); with M14, > 100 µM (inactive); with NCI-H522, > 100 µM (inactive). Also, the GI50 with SK-MEL-5, in the test with OVCAR-8, with MOLT-4, in the test on CAKI-1, in the test on TK-10 and in the test with U-251 was > 100 µM (inactive) each time. For the same compound, the GI50 in the test on A498 and with NCI-H23 was > 100 µM (inactive) throughout.

Consider `Cc1ccc(NC(=O)C2C3CCC(O3)C2C(=O)O)cc1` (stereo not drawn), for which the GI50 with OVCAR-5 was > 100 µM (inactive); with NCI-H226, 56.5 µM (inactive); with HCT-15 it was more than 44.9 µM; in the test on SK-OV-3, > 83.9 µM (inactive); with M14 it was > 49.4 µM (inactive); in the test with NCI-H522, 43.6 µM (inactive). Moreover, the GI50 with SK-MEL-5 was > 75 µM (inactive); with OVCAR-8, > 100 µM (inactive); with MOLT-4, > 87.9 µM (inactive); in the test with CAKI-1 it was > 100 µM (inactive); in the test on TK-10, > 100 µM (inactive); in the test with U-251, 43.1 µM (inactive). Also, the GI50 with A498 was > 45.1 µM (inactive); in the test on ACHN, > 93.5 µM (inactive); with NCI-H23 it was > 100 µM (inactive).

In the case of `Cc1c(C(=O)C/C(=N/NC(=O)C[n+]2ccccc2)C(=O)Nc2ccccc2)[n+]([O-])c2ccccc2[n+]1[O-]`, the GI50 with OVCAR-5 was > 100 µM (inactive); with NCI-H226 it was > 100 µM (inactive); in the test with HCT-15 it was more than 100 µM; in the test on SK-OV-3, > 100 µM (inactive); in the test on M14, > 100 µM (inactive); in the test with NCI-H522 it was > 100 µM (inactive). Moreover, the GI50 with SK-MEL-5, with OVCAR-8, with MOLT-4, in the test on CAKI-1, in the test with TK-10 and with U-251 was > 100 µM (inactive) each time. The GI50 in the test on A498, with ACHN and in the test on NCI-H23 was > 100 µM (inactive) in each case.

For `Cc1cccc(C)c1NC(=O)CCCC(=O)C(C#N)c1ccc(Cl)cc1` (stereo not drawn), the GI50 with OVCAR-5 was > 100 µM (inactive); in the test with NCI-H226, > 100 µM (inactive); in the test on HCT-15 it was more than 100 µM; with SK-OV-3 it was > 100 µM (inactive); in the test on M14, > 100 µM (inactive); with NCI-H522 it was > 100 µM (inactive). Moreover, the GI50 in the test with SK-MEL-5, in the test on OVCAR-8, in the test with MOLT-4, in the test with CAKI-1, with TK-10 and in the test with U-251 was > 100 µM (inactive) each time. The GI50 in the test on A498, in the test with ACHN and in the test with NCI-H23 was > 100 µM (inactive) throughout.

As to `CCC(CO)COC(=O)/C=C/C(=O)OCC(CC)CO` (stereo not drawn), the GI50 with OVCAR-5 was > 100 µM (inactive); in the test on NCI-H226, > 100 µM (inactive); with HCT-15, more than 73.3 µM; in the test with SK-OV-3, > 100 µM (inactive); in the test on M14 it was > 71.8 µM (inactive); with NCI-H522, > 61.5 µM (inactive). Further, the GI50 in the test on SK-MEL-5 is > 100 µM (inactive); in the test with OVCAR-8 it was > 76.2 µM (inactive); with MOLT-4, 45.1 µM (inactive); in the test on CAKI-1, > 100 µM (inactive); in the test on TK-10, > 100 µM (inactive); in the test with U-251, > 100 µM (inactive). In addition, the GI50 with A498 was > 100 µM (inactive); in the test on ACHN, > 100 µM (inactive); in the test on NCI-H23, > 84.7 µM (inactive).

Take `COc1nc(OC)nc(Sc2ccc(Sc3ccc(Sc4nc(OC)nc(OC)n4)cc3)cc2)n1`: the GI50 is > 100 µM (inactive) with OVCAR-5; > 100 µM (inactive) in the test with NCI-H226; more than 100 µM in the test on HCT-15; > 100 µM (inactive) in the test with SK-OV-3; > 100 µM (inactive) in the test on M14; > 100 µM (inactive) in the test on NCI-H522. Also, the GI50 in the test with SK-MEL-5, with OVCAR-8, in the test with MOLT-4, in the test with CAKI-1, in the test with TK-10 and in the test with U-251 was > 100 µM (inactive) throughout. The GI50 in the test on A498, in the test on ACHN and in the test on NCI-H23 was > 100 µM (inactive) each time.

With `COc1c(OC2OC(CO)C(O)C(O)C2O)cc2c(c1OC)-c1ccc(OC)c(=O)cc1C(NC(C)=O)CC2` (stereo not drawn), the GI50 with OVCAR-5 was > 100 µM (inactive); with NCI-H226 it was > 100 µM (inactive); with HCT-15, more than 100 µM; in the test on SK-OV-3 it was > 100 µM (inactive); in the test with M14 it was > 100 µM (inactive); in the test on NCI-H522 it was > 100 µM (inactive). For the same compound, the GI50 with SK-MEL-5 is 35.4 µM (inactive); in the test on OVCAR-8, > 100 µM (inactive); in the test with MOLT-4, > 100 µM (inactive); in the test with CAKI-1, > 100 µM (inactive); in the test on TK-10, > 100 µM (inactive); in the test with U-251, > 100 µM (inactive). Further, the GI50 in the test with A498, with ACHN and in the test on NCI-H23 was > 100 µM (inactive) throughout.

On to `Cn1cnc([N+](=O)[O-])c1Sc1nnnn1-c1ccccc1`, for which the GI50 in the test with OVCAR-5 was 17.8 µM (inactive); in the test with NCI-H226 it was 17.3 µM (inactive); with SK-OV-3 it was 46.9 µM (inactive); in the test on M14, 10.9 µM (inactive); with NCI-H522 it was 2.34 µM (inactive); with SK-MEL-5, 16.1 µM (inactive). In addition, the GI50 in the test on OVCAR-8 was 13.8 µM (inactive); in the test with MOLT-4 it was 2.17 µM (inactive); in the test on CAKI-1, 15.9 µM (inactive); in the test with TK-10, 17.9 µM (inactive); in the test with U-251, 13 µM (inactive); in the test with A498 it was 18.7 µM (inactive). Besides, the GI50 was 13.9 µM (inactive) in the test with ACHN and 19.4 µM (inactive) in the test on NCI-H23.

Regarding `CC(=O)O[C@@H]1CC[C@@]2(C)C(=O)C34C[C@@]5(C)C([C@@H](C)CCCC(C)C)CCC5(C)[C@](O)(O3)C(=O)[C@H]4C2C1(C)C` (stereo partly drawn), the GI50 in the test with OVCAR-5 was 15.9 µM (inactive); in the test with NCI-H226 it was 15.7 µM (inactive); in the test with HCT-15 it was 13.5 µM; in the test with SK-OV-3, 18.3 µM (inactive); in the test with M14, 13.1 µM (inactive); with NCI-H522 it was 12.3 µM (inactive). The GI50 in the test on SK-MEL-5 is 15 µM (inactive); in the test on OVCAR-8 it was 16.5 µM (inactive); in the test on MOLT-4, 7.74 µM (inactive); with CAKI-1 it was 14.7 µM (inactive); in the test on TK-10 it was 16.6 µM (inactive); in the test on U-251 it was 14.3 µM (inactive). Besides, the GI50 with A498 is 22.2 µM (inactive); in the test with ACHN, 14 µM (inactive); with NCI-H23, 13.4 µM (inactive).

As to `CCCCCC(=O)N[C@H]1CCc2cc(O)c(O)c(O)c2-c2ccc(SC)c(=O)cc21`, the GI50 was > 100 µM (inactive) with OVCAR-5; 28.2 µM (inactive) in the test with NCI-H226; 22.5 µM with HCT-15; 23.3 µM (inactive) with SK-OV-3; 19 µM (inactive) in the test with M14; 15.1 µM (inactive) in the test on NCI-H522. In addition, the GI50 was 28.4 µM (inactive) in the test with SK-MEL-5; 26.1 µM (inactive) with OVCAR-8; 27.8 µM (inactive) with MOLT-4; 28.3 µM (inactive) in the test on CAKI-1; > 100 µM (inactive) with TK-10; 27.9 µM (inactive) with U-251. Further, the GI50 with A498 is 29 µM (inactive); in the test on ACHN it was > 100 µM (inactive); in the test on NCI-H23, 21.6 µM (inactive).
